According to patent EP1433789A1, “Pyrrolopyrazines and their use as selective apoptosis inducers” (Aponetics AG, priority 2002, dated 2004):

Tests used:
Jurkat [1] = assay: PI staining for cell cycle distribution; assay type: cell-based, human; parameters: key: 0 indicates no occurrence at all; 1 for weak; 2 for strong occurrence; conditions: Jurkat 3 uM, 24 h
Method: (§1) 1 - 2*10^5 cells are seeded into 24 well tissue culture plates and incubated for 24 h prior to compound addition. Compounds are added for 24 h in a final concentration of 3 µM or 10 µM. Adherent cells are harvested by trypsinization. The cell suspensions are fixed by adding 2 parts ice cold ethanol 100% while vortexing. Then the samples are stored for > 2 h at-20°C. Subsequently the cells are washed with PBS once and resuspended in 250 µl PBS containing 50 µg/ml PI (Calbiochem # 537059), then the samples are incubated at 37°C for 30 minutes and subsequently analyzed on a FACSCalibur™ monitoring linear PI fluorescence activity on FL2.. The readout allows the detection of a possible direct or indirect influence of the tested compounds on the cell cycle. The following events can occur: a) Generation of a subG1 peak indicative for DNA fragmentation, b) increase of the cell population arrested in G2M phase. Both events are scored by 1 for weak and 2 for strong occurrence. 0 indicates no occurrence at all. […]

HeLa [2] = assay: PI staining for cell cycle distribution; assay type: cell-based, human; parameters: key: 0 indicates no occurrence at all; 1 for weak; 2 for strong occurrence; conditions: HeLa 10 µM, 24 h
Method: as §1

K562 [3] = assay: Hoechst 33342 nuclear staining (Table 3); assay type: cell-based, human; parameters: key: 0 relating to no activity; 1 relating to weak activity comprising less than 50% of the cells; score 2 relating to strong activity comprising more than 50% of the cells
Outline: (§2)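 Adherent cells (3-5×10^3, pre-spread 24 h) or suspension cells (8-10×10^3) treated with compounds at 10, 3, 1 and 0.3 µM for 24 or 48 h, then Hoechst 33342 stained for 30 min. Apoptotic nuclear morphology scored by fluorescence microscopy: 0 none, 1 weak (<50% cells), 2 strong (>50% cells).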

Jurkat [4] = assay: Hoechst 33342 nuclear staining (Table 3); assay type: cell-based, human; parameters: key: 0 relating to no activity; 1 relating to weak activity comprising less than 50% of the cells; score 2 relating to strong activity comprising more than 50% of the cells
Outline: as §2

A20 [5] = assay: AnnexinV/7-AAD staining; assay type: cell-based, mouse; conditions: A20, 10 µM, 24 h treatment
Outline: (§3)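 Cells treated with compound at 10 µM final for 24 h, then stained with AnnexinV-GST/anti-GST Alexa 488 and 7-AAD and analysed by flow cytometry. Percent positive cells scored as 0 (<10%), 1 (10–50%) or 2 (>50%).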

K562 [6] = assay: MTS proliferation assay; assay type: cell-based; conditions: Homo sapiens, K562, 72 h incubation
Outline: (§4)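 Cells (1.5*10^3–10^4/well) seeded 24 h before treatment, then exposed 72 h to compound at 10, 3, 1 or 0.3 µM final (≤5% DMSO in added medium). Viability by MTS reagent, 3 h further incubation, absorbance at 492 nm.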

Jurkat [7] = assay: MTS proliferation assay; assay type: cell-based; conditions: Homo sapiens, 72 h incubation
Outline: as §4

HeLa [8] = assay: MTS proliferation assay; assay type: cell-based; conditions: Homo sapiens, 72 h incubation
Outline: as §4

A20 [9] = assay: Hoechst 33342 nuclear staining (Table 3); assay type: cell-based, mouse; parameters: key: 0 relating to no activity; 1 relating to weak activity comprising less than 50% of the cells; score 2 relating to strong activity comprising more than 50% of the cells
Outline: as §2

Jurkat [10] = assay: AnnexinV/7-AAD staining; assay type: cell-based, human; conditions: 10 µM, 24 h treatment
Outline: as §3

HeLa [11] = assay: AnnexinV/7-AAD staining; assay type: cell-based, human; conditions: 10 µM, 24 h treatment
Outline: as §3

Ramos = assay: AnnexinV/7-AAD staining; assay type: cell-based, human; conditions: 10 µM, 24 h treatment
Outline: as §3

| Structure (SMILES) | G2M (increase of the cell population arrested in G2M phase) (Jurkat [1]) | subG1 (generation of a subG1 peak indicative for DNA fragmentation) (Jurkat [1]) | G2M (increase of the cell population arrested in G2M phase) (HeLa [2]) | subG1 (generation of a subG1 peak indicative for DNA fragmentation) (HeLa [2]) | Hoechst 33342 nuclear staining (K562 [3]; K562, 24h, conc 0.3 (µM)) | Hoechst 33342 nuclear staining (K562 [3]; K562, 24h, conc 1 (µM)) | Hoechst 33342 nuclear staining (K562 [3]; K562, 24h, conc 3 (µM)) | Hoechst 33342 nuclear staining (K562 [3]; K562, 24h, conc 10 (µM)) | Hoechst 33342 nuclear staining (K562 [3]; K562, 48h, conc 0.3 (µM)) | Hoechst 33342 nuclear staining (K562 [3]; K562, 48h, conc 1 (µM)) | Hoechst 33342 nuclear staining (K562 [3]; K562, 48h, conc 3 (µM)) | Hoechst 33342 nuclear staining (K562 [3]; K562, 48h, conc 10 (µM)) | Hoechst 33342 nuclear staining (Jurkat [4]; 24h, conc 0.3 (µM)) | Hoechst 33342 nuclear staining (Jurkat [4]; 24h, conc 1 (µM)) | Hoechst 33342 nuclear staining (Jurkat [4]; 24h, conc 3 (µM)) | Hoechst 33342 nuclear staining (Jurkat [4]; 24h, conc 10 (µM)) | Hoechst 33342 nuclear staining (Jurkat [4]; 48h, conc 0.3 (µM)) | Hoechst 33342 nuclear staining (Jurkat [4]; 48h, conc 1 (µM)) | Hoechst 33342 nuclear staining (Jurkat [4]; 48h, conc 3 (µM)) | Hoechst 33342 nuclear staining (Jurkat [4]; 48h, conc 10 (µM)) | also measured |
| --- | --- | --- | --- | --- | --- | --- | --- | --- | --- | --- | --- | --- | --- | --- | --- | --- | --- | --- | --- | --- | --- |
| COc1cc2c(cc1OC)-c1c(Cl)c3nc4ccccc4nc3n1C(C)C2 (stereo not drawn) [compound 12] | 0 | 0 | 0 | 0 | 0 | 0 | 0 | 2 (score 2 relating to strong activity comprising more than 50% of the cells) | 0 | 1 (1 relating to weak activity comprising less than 50% of the cells) | 2 (score 2 relating to strong activity comprising more than 50% of the cells) | 2 (score 2 relating to strong activity comprising more than 50% of the cells) | 0 | 0 | 1 (1 relating to weak activity comprising less than 50% of the cells) | 2 (score 2 relating to strong activity comprising more than 50% of the cells) | 1 (1 relating to weak activity comprising less than 50% of the cells) | 2 (score 2 relating to strong activity comprising more than 50% of the cells) | 2 (score 2 relating to strong activity comprising more than 50% of the cells) | 2 (score 2 relating to strong activity comprising more than 50% of the cells) | percentage of positively stained cells (AnnexinV/7-AAD staining) (A20 [5]): 2 (score 2 relates to more than 50% positivity); IC50 (K562 [6]): > 10 µM; IC50 (Jurkat [7]): > 10 µM; IC50 (HeLa [8]): > 10 µM; Hoechst 33342 nuclear staining (A20 [9]; A20, 24h, conc 0.3 (µM)): 0; Hoechst 33342 nuclear staining (A20 [9]; A20, 24h, conc 1 (µM)): 0; Hoechst 33342 nuclear staining (A20 [9]; A20, 24h, conc 3 (µM)): 0; Hoechst 33342 nuclear staining (A20 [9]; A20, 24h, conc 10 (µM)): 0; Hoechst 33342 nuclear staining (A20 [9]; A20, 48h, conc 0.3 (µM)): 0; Hoechst 33342 nuclear staining (A20 [9]; A20, 48h, conc 1 (µM)): 0; Hoechst 33342 nuclear staining (A20 [9]; A20, 48h, conc 3 (µM)): 0; Hoechst 33342 nuclear staining (A20 [9]; A20, 48h, conc 10 (µM)): 2 (score 2 relating to strong activity comprising more than 50% of the cells); percentage of positively stained cells (AnnexinV/7-AAD staining) (Jurkat [10]): 2 (score 2 relates to more than 50% positivity); percentage of positively stained cells (AnnexinV/7-AAD staining) (HeLa [11]): 2 (score 2 relates to more than 50% positivity); percentage of positively stained cells (AnnexinV/7-AAD staining) (Ramos): 2 (score 2 relates to more than 50% positivity) |
| COc1cc2c(cc1OC)-c1c(Br)c3nc4ccccc4nc3n1C(C)C2 (stereo not drawn) [compound 10] | 0 | 0 | 0 | 0 | 0 | 0 | 2 (score 2 relating to strong activity comprising more than 50% of the cells) | 2 (score 2 relating to strong activity comprising more than 50% of the cells) | 0 | 2 (score 2 relating to strong activity comprising more than 50% of the cells) | 2 (score 2 relating to strong activity comprising more than 50% of the cells) | 2 (score 2 relating to strong activity comprising more than 50% of the cells) | 1 (1 relating to weak activity comprising less than 50% of the cells) | 2 (score 2 relating to strong activity comprising more than 50% of the cells) | 2 (score 2 relating to strong activity comprising more than 50% of the cells) | 2 (score 2 relating to strong activity comprising more than 50% of the cells) | 1 (1 relating to weak activity comprising less than 50% of the cells) | 2 (score 2 relating to strong activity comprising more than 50% of the cells) | 2 (score 2 relating to strong activity comprising more than 50% of the cells) | 2 (score 2 relating to strong activity comprising more than 50% of the cells) | percentage of positively stained cells (AnnexinV/7-AAD staining) (A20 [5]): 1 (score 1 relates to more than 10% but less than 50%); IC50 (K562 [6]): > 10 µM; IC50 (Jurkat [7]): > 10 µM; IC50 (HeLa [8]): 1 to 10 µM; Hoechst 33342 nuclear staining (A20 [9]; A20, 24h, conc 0.3 (µM)): 0; Hoechst 33342 nuclear staining (A20 [9]; A20, 24h, conc 1 (µM)): 0; Hoechst 33342 nuclear staining (A20 [9]; A20, 24h, conc 3 (µM)): 0; Hoechst 33342 nuclear staining (A20 [9]; A20, 24h, conc 10 (µM)): 2 (score 2 relating to strong activity comprising more than 50% of the cells); Hoechst 33342 nuclear staining (A20 [9]; A20, 48h, conc 0.3 (µM)): 0; Hoechst 33342 nuclear staining (A20 [9]; A20, 48h, conc 1 (µM)): 0; Hoechst 33342 nuclear staining (A20 [9]; A20, 48h, conc 3 (µM)): 2 (score 2 relating to strong activity comprising more than 50% of the cells); percentage of positively stained cells (AnnexinV/7-AAD staining) (Jurkat [10]): 2 (score 2 relates to more than 50% positivity); percentage of positively stained cells (AnnexinV/7-AAD staining) (HeLa [11]): 2 (score 2 relates to more than 50% positivity); percentage of positively stained cells (AnnexinV/7-AAD staining) (Ramos): 2 (score 2 relates to more than 50% positivity) |
